Converted amounts (≈) assume the structure as drawn.
What was measured:
[1] = Strain rate sensitivity (SRS); type: physicochemical; details: percent increase in yield pressure from slow to fast punch velocity
Excerpt: (§1) The mechanical properties of materials such as powders may be described in terms of the following characteristics: • (a) Hardness, or resistance to deformation, which can be measured by an indentation hardness test; • (b) Yield pressure (denoted Py and also known as yield stress), that is the point at which plastic deformation occurs, which can be measured by compaction studies; • (c) Strain Rate Sensitivity (SRS), that is the percent increase in yield pressure from slow to fast punch velocity, which can be measured by compaction studies; and • (d) Modulus of Elasticity, that is the ratio of stress to elongation (strain), which can be measured by numerous methods that are well known to a person skilled in the art of formulation.
Materials can, in general, be classified by the way in which they deform under compressive force, either by brittle fracture or by plastic deformation. The degree of deformation for a brittle material is independent of the rate and duration of the compression event (that is the compression applied), giving a strain rate sensitivity value for such materials of 0% (zero %). […]
The strain rate sensitivity of a material can be calculated using the mean yield pressures (Py) calculated for a material at fast (300 mm s^−1) and slow (0.033 mm s^−1) punch velocities. […]

physchem = details: water, 25 °C
tumour models = details: range of models, once-daily oral administration; cited from earlier work
VEGF RTK = details: cited from earlier work
[2] = Yield pressure test (compaction simulator, Heckel plot); type: physicochemical
Excerpt: as §1
The yield pressure of a material can be determined by compressing it in a compaction simulator using a simple uniaxial saw tooth displacement/time profile and measuring the corresponding forces. The compaction simulator is fitted with 10 mm flat-faced punches and the material is compressed to zero porosity at a specific punch velocity. The force/displacement data generated are manipulated to produce a Heckel plot and the yield pressure is equivalent to the […] of the Heckel plot. This test can be performed at different punch velocities to determine the effect of scale-up on the deformation characteristics of the material. […]

solubility (physchem) [µg/mL] | solubility class per British Pharmacopoeia 2001-2002 classification system (Solubility in water) | yield pressure [2] [MPa] | SMILES | strain rate sensitivity [1] [%] | anti-tumour activity (tumour models) | inhibition of VEGF RTK (VEGF RTK)
 |  |  | O.OC[C@H]1O[C@@H](O[C@H]2[C@H](O)[C@@H](O)C(O)O[C@@H]2CO)[C@H](O)[C@@H](O)[C@H]1O (stereo partly shown) [Lactose monohydrate] | 19.4 |  | 
33 (≈ 69.4 µM) | practically insoluble | 22 | COc1cc2c(Nc3ccc(Br)cc3F)ncnc2cc1OCC1CCN(C)CC1 [ZD6474, 4-(4-bromo-2-fluoroanilino)-6-methoxy-7-(1-methylpiperidin-4-ylmethoxy)quinazoline] | 197 | broad-spectrum anti-tumour activity | potent inhibitor
